The experiment addresses REV-ERBα LBD (Homo sapiens, UniProt P20393, DEL324-422). Kind of experiment: biochemical. The conditions noted are these: FRET assay; 6xHistag-REV-ERBα LBD with FITC-labeled SMRT corepressor peptide; read-out: REVERBα (Agonism of REV-ERBα, EC50). As to the method: TR-FRET corepressor interaction assay. The time-resolved fluorescence resonance energy transfer (TR-FRET) assay was performed in black low-volume 384-well plates (Greiner). Each well contained 4 nM 6×Histag-REV-ERBα LBD (human; residues 281-614 A324-422) or 6×Histag-REV-ERBα LBD (human; residues 381-579) protein expressed in and purified from Escherichia coli using nickel affinity and size exclusion chromatography; 1 nM LanthaScreen Elite Tb-anti-HIS Antibody (Thermo Fisher Scientific); and 400 nM FITC-labeled peptide derived from the SMRT corepressor ([…]) containing a N-terminal FITC label with a six-carbon linker (Ahx) and an amidated C-terminus for stability (synthesized by LifeTein) in TR-FRET buffer (20 mM potassium phosphate, pH 7.4, 50 mM potassium chloride, 1 mM dithiothreitol, and 0.005% Tween-20). Ligand stocks were prepared via serial dilution in DMSO, added to wells in triplicate, and plates were incubated at 4° C. for 2 h and read using a BioTek Synergy Neo multimode plate reader. The Tb donor was excited at 340 nm; its fluorescence emission was monitored at 495 nm, and the acceptor FITC emission was measured at 520 nm; and the TR-FRET ratio was calculated as the signal at 520 nm divided by the signal at 495 nm. Data were plotted using GraphPad Prism as TR-FRET ratio vs. ligand concentration and fit to sigmoidal dose response curve equation.
Exemplary compounds of the present disclosure were assayed as described above to assess agonism of REV-ERBα. Results of the FRET assay are shown in Table 2 below (A: EC50<100 nM; B: EC50 100 nM-1000 nM; C: EC50>1000 nM; NT: not tested).

SMILES strings stand for the structures.

Sequence of REV-ERBα LBD (P20393 with tags, fused parts or gaps DEL324-422): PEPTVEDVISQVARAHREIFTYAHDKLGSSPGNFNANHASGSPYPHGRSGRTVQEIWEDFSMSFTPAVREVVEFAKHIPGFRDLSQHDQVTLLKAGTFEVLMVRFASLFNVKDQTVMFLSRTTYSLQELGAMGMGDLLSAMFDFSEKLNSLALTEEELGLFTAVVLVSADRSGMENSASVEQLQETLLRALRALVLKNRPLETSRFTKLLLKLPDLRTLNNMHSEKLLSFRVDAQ
Sequence of REV-ERBα LBD (Q9Y618 2335-2356 partner limits assumed): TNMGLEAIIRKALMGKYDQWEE

On to `CC(NS(=O)(=O)C1CC1)c1cn(CC(C)(C)C)c2cc(-c3ncccc3Cl)c(F)cc12` (centres unmarked) [Compound 58, N-[1-[6-(3-chloro-2-pyridyl)-1-(2,2-dimethylpropyl)-5-fluoro-indol-3-yl]ethyl]cyclopropanesulfonamide], for which the EC50 was less than 100 nM. In the case of `CC(NS(=O)(=O)C1CC1)c1cn(CC(C)(C)C)c2cc(-c3ncccc3F)c(F)cc12` (centres unmarked) [Compound 59, N-[1-[1-(2,2-dimethylpropyl)-5-fluoro-6-(3-fluoro-2-pyridyl)indol-3-yl]ethyl]cyclopropanesulfonamide], the EC50 is less than 100 nM. Regarding `CC(NS(=O)(=O)C1CC1)c1cn(CC(C)(C)C)c2cc(-c3ncccc3C3CC3)c(F)cc12` (centres unmarked) [Compound 60, N-(1-(6-(3-cyclopropylpyridin-2-yl)-5-fluoro-1-neopentyl-1H-indol-3-yl)ethyl)cyclopropanesulfonamide], the EC50 is less than 100 nM. For the compound `CC(NS(=O)(=O)C1CC1)c1cn(CC(C)(C)C)c2cc(-c3ncccc3OC(F)F)c(F)cc12` (centres unmarked) [Compound 61, N-(1-(6-(3-(difluoromethoxy)pyridin-2-yl)-5-fluoro-1-neopentyl-1H-indol-3-yl)ethyl)cyclopropanesulfonamide], the EC50 was less than 100 nM. Consider `CC(NS(=O)(=O)C1CC1)c1cn(CC(C)(C)C)c2cc(-c3ncc(F)cc3Cl)c(F)cc12` (centres unmarked) [Compound 62, N-(1-(6-(3-chloro-5-fluoropyridin-2-yl)-5-fluoro-1-neopentyl-1H-indol-3-yl)ethyl)cyclopropanesulfonamide], for which the EC50 was less than 100 nM. Take `CC(NS(=O)(=O)C1CC1)c1cn(CC(C)(C)C)c2cc(-c3ncc(F)cc3C#N)c(F)cc12` (centres unmarked) [Compound 63, N-(1-(6-(3-cyano-5-fluoropyridin-2-yl)-5-fluoro-1-neopentyl-1H-indol-3-yl)ethyl)cyclopropanesulfonamide]: the EC50 was less than 100 nM. Turning to `CC(NS(=O)(=O)C1CC1)c1cn(CC(C)(C)C)c2cc(-c3ccc(F)cn3)c(F)cc12` (centres unmarked) [Compound 64, N-(1-(5-fluoro-6-(5-fluoropyridin-2-yl)-1-neopentyl-1H-indol-3-yl)ethyl)cyclopropanesulfonamide], the EC50 was 100 to 1000 nM. For the compound `CC(NS(=O)(=O)C1CC1)c1cn(CC(C)(C)C)c2cc(-c3cccnc3C(F)F)c(F)cc12` (centres unmarked) [Compound 65, N-(1-(6-(2-(difluoromethyl)pyridin-3-yl)-5-fluoro-1-neopentyl-1H-indol-3-yl)ethyl)cyclopropanesulfonamide], the EC50 was less than 100 nM.

For `Cc1ncc(F)cc1-c1cc2c(cc1F)c(C(C)NS(=O)(=O)C1CC1)cn2CC(C)(C)C` (centres unmarked) [Compound 66, N-(1-(5-fluoro-6-(5-fluoro-2-methylpyridin-3-yl)-1-neopentyl-1H-indol-3-yl)ethyl)cyclopropanesulfonamide], the EC50 was less than 100 nM. Regarding `CC(NS(=O)(=O)C1CC1)c1cn(CC(C)(C)C)c2cc(-c3cc(F)cnc3C#N)c(F)cc12` (centres unmarked) [Compound 67, N-(1-(6-(2-cyano-5-fluoropyridin-3-yl)-5-fluoro-1-neopentyl-1H-indol-3-yl)ethyl)cyclopropanesulfonamide], the concentration giving a half-maximal response (EC50) was less than 100 nM.

For the compound `CC(NS(=O)(=O)C1CC1)c1cn(CC(C)(C)C)c2cc(-c3cncc(F)c3)c(F)cc12` (centres unmarked) [Compound 68, N-(1-(5-fluoro-6-(5-fluoropyridin-3-yl)-1-neopentyl-1H-indol-3-yl)ethyl)cyclopropanesulfonamide], the EC50 lay within 100 to 1000 nM.

Consider `CC(NS(=O)(=O)C1CC1)c1cn(CC(C)(C)C)c2cc(-c3ccc(C#N)nc3)c(F)cc12` (centres unmarked) [Compound 69, N-(1-(6-(6-cyanopyridin-3-yl)-5-fluoro-1-neopentyl-1H-indol-3-yl)ethyl)cyclopropanesulfonamide], for which the EC50 fell in the range of 100 to 1000 nM. As to `CC(NS(=O)(=O)C1CC1)c1cn(CC(C)(C)C)c2cc(-c3ccc(C(F)(F)F)nc3)c(F)cc12` (centres unmarked) [Compound 70, N-(1-(5-fluoro-1-neopentyl-6-(6-(trifluoromethyl)pyridin-3-yl)-1H-indol-3-yl)ethyl)cyclopropanesulfonamide], the EC50 lay within 100 to 1000 nM. For `Cc1ccncc1-c1cc2c(cc1F)c(C(C)NS(=O)(=O)C1CC1)cn2CC(C)(C)C` (centres unmarked) [Compound 71, N-(1-(5-fluoro-6-(4-methylpyridin-3-yl)-1-neopentyl-1H-indol-3-yl)ethyl)cyclopropanesulfonamide], the EC50 is less than 100 nM. With `CC(NS(=O)(=O)C1CC1)c1cn(CC(C)(C)C)c2cc(-c3cnccc3F)c(F)cc12` (centres unmarked) [Compound 72, N-(1-(5-fluoro-6-(4-fluoropyridin-3-yl)-1-neopentyl-1H-indol-3-yl)ethyl)cyclopropanesulfonamide], the EC50 is 100 to 1000 nM. As to `CC(NS(=O)(=O)C1CC1)c1cn(CC(C)(C)C)c2cc(-c3cnccc3Cl)c(F)cc12` (centres unmarked) [Compound 73, N-[1-[6-(4-chloro-3-pyridyl)-1-(2,2-dimethylpropyl)-5-fluoro-indol-3-yl]ethyl]cyclopropanesulfonamide], the EC50 is less than 100 nM.

`CN(C)S(=O)(=O)N[C@@H](c1cn(CC(C)(C)C)c2cc(-c3ncc(F)cc3C(F)(F)F)ccc12)C(F)F` [Compound 74]: the EC50 is less than 100 nM.

In the case of `CN(C)S(=O)(=O)N[C@@H](c1cn(CC(C)(C)C)c2cc(-c3c(C#N)cccc3C(F)(F)F)ccc12)C(F)F` [Compound 75], the EC50 was less than 100 nM. To `CC(C)(C)Cn1cc([C@H](NS(=O)(=O)N2CC(F)C2)C(F)F)c2cc(F)c(-c3ccccc3C(F)(F)F)cc21` [Compound 76, (S)—N-(2,2-difluoro-1-(5-fluoro-1-neopentyl-6-(2-(trifluoromethyl)phenyl)-1H-indol-3-yl)ethyl)-3-fluoroazetidine-1-sulfonamide] belongs less than 100 nM.

Regarding `CC(C)(C)Cn1cc([C@H](NS(=O)(=O)C2CC2)C(F)F)c2ccc(-c3ncc(Cl)cc3F)cc21` [Compound 77, (S)—N-(1-(6-(5-chloro-3-fluoropyridin-2-yl)-1-neopentyl-1H-indol-3-yl)-2,2-difluoroethyl)cyclopropanesulfonamide], the EC50 was less than 100 nM.

Regarding `CC(C)(C)Cn1cc([C@H](NS(=O)(=O)C2CC2)C(F)F)c2ccc(-c3ncc(F)cc3Cl)cc21` [Compound 78, (S)—N-(1-(6-(3-chloro-5-fluoropyridin-2-yl)-1-neopentyl-1H-indol-3-yl)-2,2-difluoroethyl)cyclopropanesulfonamide], the EC50 was less than 100 nM. With `CC(C)(C)Cn1cc([C@H](NS(=O)(=O)C2CC2)C(F)F)c2ccc(-c3cnccc3C(F)(F)F)cc21` [Compound 79, (S)—N-(2,2-difluoro-1-(1-neopentyl-6-(4-(trifluoromethyl)pyridin-3-yl)-1H-indol-3-yl)ethyl)cyclopropanesulfonamide], the EC50 is less than 100 nM.

Turning to `CC(C)(C)Cn1cc([C@H](NS(=O)(=O)C2CC2)C(F)F)c2ccc(-c3cncnc3C(F)(F)F)cc21` [Compound 80, (S)—N-(2,2-difluoro-1-(1-neopentyl-6-(4-(trifluoromethyl)pyrimidin-5-yl)-1H-indol-3-yl)ethyl)cyclopropanesulfonamide], the EC50 is less than 100 nM. Take `CC(C)(C)Cn1cc([C@H](NS(=O)(=O)C2CC2)C(F)F)c2ccc(-c3ccccc3C(F)F)cc21` [Compound 81, (S)—N-(1-(6-(2-(difluoromethyl)phenyl)-1-neopentyl-1H-indol-3-yl)-2,2-difluoroethyl)cyclopropanesulfonamide]: the EC50 was less than 100 nM.

On to `CC(C)(C)Cn1cc([C@H](NS(=O)(=O)C2CC2)C(F)F)c2ccc(-c3c(C(F)(F)F)ccnc3C#N)cc21` [Compound 82, (S)—N-(1-(6-(2-cyano-4-(trifluoromethyl)pyridin-3-yl)-1-neopentyl-1H-indol-3-yl)-2,2-difluoroethyl)cyclopropanesulfonamide], for which the EC50 was less than 100 nM. Take `CC(C)(C)Cn1cc([C@H](NS(=O)(=O)C2CC2)C(F)F)c2ccc(-c3ncccc3F)cc21` [Compound 83, (S)—N-(2,2-difluoro-1-(6-(3-fluoropyridin-2-yl)-1-neopentyl-1H-indol-3-yl)ethyl)cyclopropanesulfonamide]: the EC50 was less than 100 nM. With `CC(C)(C)Cn1cc([C@H](NS(=O)(=O)C2CC2)C(F)F)c2ccc(-c3ncc(F)cc3F)cc21` [Compound 84, (S)—N-(1-(6-(3,5-difluoropyridin-2-yl)-1-neopentyl-1H-indol-3-yl)-2,2-difluoroethyl)cyclopropanesulfonamide], the EC50 was less than 100 nM. For the compound `CC(C)(C)Cn1cc([C@H](NS(=O)(=O)C2CC2)C(F)F)c2ccc(-c3ncccc3Cl)cc21` [Compound 85, (S)—N-(1-(6-(3-chloropyridin-2-yl)-1-neopentyl-1H-indol-3-yl)-2,2-difluoroethyl)cyclopropanesulfonamide], the EC50 is less than 100 nM. Next, `CC(C)(C)Cn1cc([C@H](NS(=O)(=O)C2CC2)C(F)F)c2ccc(-c3cc(F)cnc3C#N)cc21` [Compound 86, (S)—N-(1-(6-(2-cyano-5-fluoropyridin-3-yl)-1-neopentyl-1H-indol-3-yl)-2,2-difluoroethyl)cyclopropanesulfonamide]: less than 100 nM.

The values are drawn from US20260285846A1, “REV-ERB AGONISTS FOR TH17-MEDIATED INFLAMMATORY DISORDERS” (UNIVERSITY OF FLORID RESEARCH FOUNDATION, iNCORPORATED, priority 2021, published 2026).
